Measured values as given in the NIST ThermoML archive (doi:10.1021/je800231f).
“And” between values parts separate entries of the source, which are not always exact repeats. Equal entries are not always repeated.

Conditions: Crystal

[F-].[F-].[Hg+2] [mercuric difluoride]
Conditions	vapor or sublimation pressure
457 K	0.00015 kPa
464 K	0.00018 kPa
466 K	0.00024 kPa
469 K	0.0003 kPa
473 K	0.00024 kPa
474 K	0.00042 kPa
475 K	0.00036 kPa
480 K	0.00048 kPa
481 K	0.00066 kPa and 0.00042 kPa
483 K	0.00051 kPa and 0.00054 kPa
487 K	0.0006 kPa
488 K	0.00089 kPa
490 K	0.00076 kPa and 0.00078 kPa
492 K	0.00078 kPa
493 K	0.00091 kPa
494 K	0.00089 kPa
496 K	0.00115 kPa and 0.00095 kPa and 0.00107 kPa
498 K	0.00135 kPa and 0.00107 kPa
499 K	0.00112 kPa
502 K	0.00162 kPa and 0.00132 kPa
503 K	0.00151 kPa
504 K	0.00178 kPa
505 K	0.00174 kPa
507 K	0.00162 kPa and 0.00186 kPa
510 K	0.00209 kPa
511 K	0.00245 kPa
512 K	0.00224 kPa
513 K	0.00288 kPa and 0.00245 kPa
514 K	0.00229 kPa
515 K	0.00257 kPa
516 K	0.00347 kPa
518 K	0.00363 kPa
520 K	0.00324 kPa
521 K	0.00398 kPa and 0.00339 kPa
523 K	0.00331 kPa
525 K	0.00437 kPa and 0.00363 kPa
526 K	0.00479 kPa
527 K	0.00437 kPa and 0.00457 kPa
528 K	0.00457 kPa
529 K	0.0055 kPa
533 K	0.00575 kPa
535 K	0.00759 kPa and 0.00617 kPa
537 K	0.00759 kPa
539 K	0.00646 kPa
542 K	0.00871 kPa
543 K	0.01047 kPa and 0.00871 kPa
544 K	0.01072 kPa
549 K	0.00933 kPa
551 K	0.01318 kPa and 0.01175 kPa
552 K	0.01445 kPa
555 K	0.0138 kPa
557 K	0.0166 kPa and 0.01318 kPa
560 K	0.01862 kPa and 0.01698 kPa
561 K	0.01622 kPa
565 K	0.02188 kPa
568 K	0.02455 kPa
570 K	0.02042 kPa
580 K	0.02951 kPa
589 K	0.04074 kPa

[F][Hg].[F][Hg] [mercury fluoride (Hg2F2)]
Conditions	vapor or sublimation pressure
496 K	2.3e-05 kPa
503 K	3.4e-05 kPa
508 K	5.8e-05 kPa
509 K	4.6e-05 kPa
515 K	7.9e-05 kPa
516 K	6.8e-05 kPa
520 K	0.000102 kPa
524 K	0.000138 kPa
526 K	0.000138 kPa
531 K	0.000204 kPa
533 K	0.000229 kPa
536 K	0.000288 kPa and 0.000214 kPa and 0.000229 kPa
539 K	0.000275 kPa
542 K	0.000389 kPa
543 K	0.000324 kPa
544 K	0.000407 kPa
545 K	0.000437 kPa
546 K	0.000501 kPa and 0.000363 kPa
547 K	0.000437 kPa
548 K	0.000501 kPa
549 K	0.000457 kPa
552 K	0.000589 kPa
553 K	0.00055 kPa
554 K	0.000871 kPa and 0.000646 kPa and 0.000575 kPa
556 K	0.000676 kPa
557 K	0.000794 kPa and 0.000724 kPa
559 K	0.000871 kPa and 0.000724 kPa and 0.000851 kPa
560 K	0.000794 kPa
562 K	0.001 kPa and 0.000912 kPa
563 K	0.001 kPa
564 K	0.001288 kPa and 0.001 kPa
565 K	0.001148 kPa and 0.001259 kPa
567 K	0.001259 kPa
569 K	0.00123 kPa
571 K	0.001585 kPa
572 K	0.001585 kPa and 0.001445 kPa
573 K	0.002138 kPa and 0.001549 kPa and 0.001349 kPa
574 K	0.001585 kPa
576 K	0.002042 kPa
577 K	0.002399 kPa
578 K	0.00195 kPa and 0.002089 kPa and 0.001905 kPa
579 K	0.002089 kPa
580 K	0.002089 kPa
582 K	0.003162 kPa
583 K	0.002089 kPa
584 K	0.003236 kPa and 0.002512 kPa
585 K	0.002692 kPa and 0.002818 kPa
586 K	0.002884 kPa
588 K	0.003236 kPa and 0.003162 kPa
589 K	0.00309 kPa
590 K	0.003548 kPa
591 K	0.004571 kPa
592 K	0.004467 kPa
593 K	0.003631 kPa
594 K	0.004467 kPa
595 K	0.004365 kPa
596 K	0.004571 kPa and 0.004365 kPa
599 K	0.006026 kPa and 0.004786 kPa
600 K	0.006918 kPa and 0.00537 kPa
601 K	0.005754 kPa
605 K	0.007762 kPa and 0.006457 kPa and 0.006761 kPa
606 K	0.006918 kPa [middle of 4 runs]
609 K	0.00955 kPa
611 K	0.008128 kPa and 0.00955 kPa and 0.007413 kPa
614 K	0.01 kPa and 0.00871 kPa
615 K	0.01 kPa
616 K	0.01259 kPa and 0.01072 kPa and 0.01097 kPa
617 K	0.01148 kPa
618 K	0.0123 kPa
619 K	0.01023 kPa
622 K	0.0138 kPa and 0.0123 kPa
623 K	0.01514 kPa
624 K	0.01738 kPa
625 K	0.01862 kPa
626 K	0.0138 kPa
628 K	0.01549 kPa
629 K	0.0195 kPa
